# US20140243374A1, “Novel Sulfonamides” (The Brigham and Women's Hospital, Inc., priority 2011, published 2014)
# “And” between values parts separate entries of the source, which are not always exact repeats. Equal values may be shown once.
# Assays:
# [1] = molecular target: T1, γ-secretase (cleavage of APP, Aβ42) (Homo sapiens, UniProt P49768); test: Aβ (1-42) cellular assay (Aβ ELISA, HEK AP-GL-T1 6 cells); type: cell-based; details: for IC50: cellular Aβ42 ELISA, 24 h compound treatment; for inhibition at 1 µM: at 1 μM (concentration in brackets), read-out: Aβ42 % Inh
# T1 construct: endogenous in cells; host or cells: HEK AP-GL-T16 luciferase reporter cells (tetracycline-induced APP substrate)
# How it was run: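 HEK AP-GL-T1 6 cells, with APP processing induced by tetracycline at compound addition 24 h post-plating. After 24 h of treatment, Aβ42 in conditioned medium (protease inhibitors added, frozen) was quantified by fluorometric sandwich ELISA (ex 460/em 560 nm) against an Aβ peptide standard curve.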
# [2] = molecular target: T2, γ-secretase (Notch cleavage activity) (Homo sapiens, UniProt P49768); test: Cleaved Notch1 Sandwich ELISA (SUP-T1 cell line); type: cell-based; details: for IC50: SUP-T1 cells, 16 h; for Notch Elisa/Aβ42: ratio Notch Elisa IC50 to Aβ42 IC50
# T2 construct: endogenous in cells; host or cells: SUP-T1 cells
# How it was run: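 SUP-T1 cells endogenously express a truncated Notch fragment that serves as γ-secretase substrate. Cells at 1.0×10^6 cells/mL in RPMI-1640 with 10% FBS were treated 16 h with serially diluted compounds in DMSO. Cleaved Notch intracellular domain was quantified by sandwich ELISA on equal protein amounts.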
# [3] = molecular target: T3, γ-secretase (cleavage of Notch) (Homo sapiens, UniProt P49768); test: Notch cellular assay (luciferase reporter U2OS cells); type: cell-based; details: for IC50: U2OS luciferase reporter cells; for Notch Luc/Aβ42: ratio Notch luciferase IC50 to Aβ42 IC50
# T3 construct: endogenous in cells; host or cells: U2OS luciferase reporter cells with Tet-on Notch
# Procedure: This assay was used to determine if the compounds of interest inhibit the cleavage of Notch by γ-secretase in cells. A U2OS cell line in which the luciferase expression is adjusted by active Notch was used in this assay Notch expression is adjusted using Tet-on promoter. Luciferase reporter U2OS cells are plated at 1000 cells/well in 96 well plates in DMEM containing 100 μg/mL hygromycin, 15 μg/mL blasticidin and 1 μg/mL Tetracycline. Compounds were added 24 h after plating and the cells are lysed 6 days after adding compounds. Luciferase expression was performed using Steady-Glo Luciferase Assay System (Promega).
Structure (SMILES),IC50 [1],IC50 [2],Notch Elisa/Aβ42 [2],melting point,IC50 [3],Notch Luc/Aβ42 [3],inhibition at 1 µM [1]
"CC[C@@H](C1CCCCC1)N(Cc1ccc(C(=O)O)cc1)S(=O)(=O)c1ccc(Cl)cc1 [Example 15, (S)-4-((4-Chloro-N-(1-cyclohexylpropyl)phenylsulfonamido)methyl)benzoic acid]",28 nM,,,147 to 149 °C,20000 nM,715,
"O=C(O)c1ccc(CN(C2CCCCC2F)S(=O)(=O)c2ccc(Cl)cc2)c(F)c1F (stereo not drawn) [Example 72, 4-((4-Chloro-N-(2-fluorocyclohexyl)phenylsulfonamido)methyl)-2,3-difluorobenzoic acid]",48.5 nM,3540 nM,73,108 to 109 °C,,,
"CC1CCCCC1N(Cc1ccc(C(=O)O)cc1)S(=O)(=O)c1ccc(C(F)(F)F)nc1 (stereo not drawn) [Example 32, 4-((N-(2-Methylcyclohexyl)-6-(trifluoromethyl)pyridine-3-sulfonamido)methyl)benzoic acid]",28.4 nM,,,117 to 119 °C,4800 nM,169,
"COc1ccc(CN(CC2CCOCC2)S(=O)(=O)c2ccc(Cl)cc2)cc1C(=O)O [Example 17, 5-((4-Chloro-N-((tetrahydro-2H-pyran-4-yl)methyl)phenylsulfonamido)methyl)-2-methoxybenzoic acid]",,,,158 to 159 °C,,,14%
"N#Cc1ccc(CN(C2CCC2)S(=O)(=O)c2ccc(Cl)cc2)c(F)c1 [Example 26, 4-Chloro-N-(4-cyano-2-fluorobenzyl)-N-cyclobutylbenzenesulfonamide]",,,,125 to 127 °C,,,54%
"C[C@H](CO)NC(=O)c1ccc(CN(C2CCCCC2F)S(=O)(=O)c2ccc(Cl)cc2)c(F)c1F (stereo partly drawn) [Example 77, 4-((4-Chloro-N-(2-fluorocyclohexyl)phenylsulfonamido)methyl)-2,3-difluoro-N—((R)-1-hydroxypropan-2-yl)benzamide]",4.24 nM and 3.36 nM,1020 nM,268,126 to 128 °C,,,
"O=C(O)c1ccc(CN(C2CCCCC2)S(=O)(=O)c2ccc(F)cc2)cc1 [Example 9, 4-((N-cyclohexyl-4-fluorophenylsulfonamido)methyl)benzoic acid]",,,,218 to 220 °C,,,0%
"CSc1ccc(CN(C2CCOCC2)S(=O)(=O)c2ccc(Cl)cc2)cc1 [Example 10, 4-Chloro-N-(4-(methylthio)benzyl)-N-(tetrahydro-2H-pyran-4-yl)benzene-sulfonamide]",,,,124 to 127 °C,,,0%

# Other lines, results leading:
IC50 [1],IC50 [2],Notch Elisa/Aβ42 [2],melting point,IC50 [3],Notch Luc/Aβ42 [3],inhibition at 1 µM [1],Structure (SMILES)
1.1 nM and 1.8 nM,160 nM,110,95 to 97 °C,2300 nM,1586,,"CC1CCCCC1N(Cc1ccc(C(=O)N[C@@H](C)CO)cc1)S(=O)(=O)c1ccc(Cl)cc1 (stereo partly drawn) [Example 5, 4-((4-Chloro-N-(2-methylcyclohexyl)phenylsulfonamido)methyl)-N—((S)-1-hydroxypropan-2-yl)benzamide]"
216 nM and 47.4 nM and 180 nM,35900 nM,243,135 to 137 °C,,,,"O=C(O)c1ccc(CN(C2CCCCC2)S(=O)(=O)c2ccc(Cl)cc2)cc1 [Example 45, 4-((4-chloro-N-cyclohexylphenylsulfonamido)methyl)benzoic acid]"
135 nM,,,121 to 122 °C,8090 nM,60,,"CC1CCCCC1N(Cc1ccc(C(=O)NC(C)(C)C(=O)O)cc1)S(=O)(=O)c1ccc(Cl)cc1 (stereo not drawn) [Example 34, 2-(4-((4-Chloro-N-(2-methylcyclohexyl)phenylsulfonamido)methyl)benzamido)-2-methylpropanoic acid]"
0.83 nM,130 nM,157,105 to 107 °C,990 nM,1192,,"CC1CCCCC1N(Cc1ccc(C(=O)NCCO)cc1)S(=O)(=O)c1ccc(Cl)cc1 (stereo not drawn) [Example 6, 4-((4-Chloro-N-(2-methylcyclohexyl)phenylsulfonamido)methyl)-N-(2-hydroxyethyl)benzamide]"
50 nM,,,67 to 69 °C,40000 nM and 100000 nM,1400,,"CC[C@@H](C1CCCC1)N(Cc1ccc(C(=O)O)cc1)S(=O)(=O)c1ccc(Cl)cc1 [Example 20, (S)-4-((4-Chloro-N-(1-cyclopentylpropyl)phenylsulfonamido)methyl)benzoic acid]"
7 nM and 12.7 nM and 3.8 nM,350 nM,45,180 to 182 °C,5000 nM and 4400 nM and 4300 nM,585,,"CC1CCCCC1N(Cc1ccc(C(=O)O)cc1)S(=O)(=O)c1ccc(Cl)cc1 (stereo not drawn) [Example 3, 4-((4-Chloro-N-(2-methylcyclohexyl)phenylsulfonamido)methyl)benzoic acid]"
20.9 nM,,,116 to 117 °C,2540 nM,,,"CC1CCCCC1N(Cc1ccc(C(=O)NC(C)(C)CO)cc1)S(=O)(=O)c1ccc(Cl)cc1 (stereo not drawn) [Example 37, 4-((4-Chloro-N-(2-methylcyclohexyl)phenylsulfonamido)methyl)-N-(1-hydroxy-2-methylpropan-2-yl)benzamide]"
